Source: patent publication US20240391875A1, “ISOQUINOLINONES AND QUINOLINONES AS MODULATORS OF POLRMT” (Pretzel Therapeutics, Inc., priority 2021, published 2024)
pIC50: −log10 of the molar value.

biological target: POLRMT (Homo sapiens, UniProt O00411); assay: homogeneous TR-FRET assay of mitochondrial transcription (inhibition of POLRMT); assay type: biochemical; details: isoquinolinone compounds (Table 1)
How it was run: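 Recombinant POLRMT (7.5 nM) with TFB2M, TFAM and linearized LSP plasmid template, 500 μM NTPs, pH 7.5 Mg buffer; 60 min at 37° C. Reaction stopped with EDTA/high-salt buffer, 407 bp RNA transcript detected by hybridized ATTO647/Europium-cryptate probe pair; TR-FRET 665/620 nm ratio taken as transcript yield.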

Chain of POLRMT (O00411 42-1230): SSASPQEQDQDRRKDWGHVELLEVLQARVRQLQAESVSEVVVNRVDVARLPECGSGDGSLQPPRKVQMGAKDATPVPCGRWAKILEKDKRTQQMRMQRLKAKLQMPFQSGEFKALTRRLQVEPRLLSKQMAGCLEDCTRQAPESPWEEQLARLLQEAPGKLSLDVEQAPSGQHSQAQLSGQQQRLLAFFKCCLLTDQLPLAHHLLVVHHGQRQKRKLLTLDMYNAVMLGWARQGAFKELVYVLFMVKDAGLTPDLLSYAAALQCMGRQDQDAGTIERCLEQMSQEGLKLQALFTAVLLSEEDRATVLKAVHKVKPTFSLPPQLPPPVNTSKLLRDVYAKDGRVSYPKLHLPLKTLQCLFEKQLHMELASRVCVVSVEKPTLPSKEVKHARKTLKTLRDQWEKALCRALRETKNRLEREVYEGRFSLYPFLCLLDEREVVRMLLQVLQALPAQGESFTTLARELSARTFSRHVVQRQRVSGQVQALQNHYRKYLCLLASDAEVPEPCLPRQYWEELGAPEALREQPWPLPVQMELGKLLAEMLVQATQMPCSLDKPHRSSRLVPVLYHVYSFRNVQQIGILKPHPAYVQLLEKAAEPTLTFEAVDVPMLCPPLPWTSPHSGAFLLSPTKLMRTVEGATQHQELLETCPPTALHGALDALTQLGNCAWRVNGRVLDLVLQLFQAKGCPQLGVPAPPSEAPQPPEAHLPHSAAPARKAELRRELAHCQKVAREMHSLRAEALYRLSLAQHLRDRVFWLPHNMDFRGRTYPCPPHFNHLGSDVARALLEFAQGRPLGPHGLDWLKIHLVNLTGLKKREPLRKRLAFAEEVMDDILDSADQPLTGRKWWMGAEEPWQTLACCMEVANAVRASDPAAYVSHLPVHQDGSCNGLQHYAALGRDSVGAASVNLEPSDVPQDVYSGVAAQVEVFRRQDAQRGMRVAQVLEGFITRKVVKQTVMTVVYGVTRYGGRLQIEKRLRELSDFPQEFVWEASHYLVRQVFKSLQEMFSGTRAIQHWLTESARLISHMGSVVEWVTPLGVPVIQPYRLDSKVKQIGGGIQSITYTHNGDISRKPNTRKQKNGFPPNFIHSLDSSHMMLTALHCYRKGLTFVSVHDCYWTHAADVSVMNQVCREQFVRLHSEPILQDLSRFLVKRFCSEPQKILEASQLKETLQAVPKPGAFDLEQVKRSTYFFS

| pIC50 | Compound |
| --- | --- |
| 6.52 | CCc1ccccc1-c1c[nH]c(=O)c2cc(OCC#N)ccc12 [Example 137, 2-((4-(2-ethylphenyl)-1-oxo-1,2-dihydroisoquinolin-7-yl)oxy)acetonitrile] |
| 4.92 | CCc1ccccc1-c1c[nH]c(=O)c2cc(OCC(N)=O)ccc12 [Example 138, 2-((4-(2-ethylphenyl)-1-oxo-1,2-dihydroisoquinolin-7-yl)oxy)acetamide] |
| 5.70 | C[C@@H](Oc1ccc2c(-c3ccc(F)cc3Cl)c[nH]c(=O)c2c1)C(=O)N1CCS(=N)(=O)CC1 [Example 139, (R)-4-(2-chloro-4-fluorophenyl)-7-((1-(1-imino-1-oxido-1λ^6-thiomorpholino)-1-oxopropan-2-yl)oxy)isoquinolin-1(2H)-one] |

same assay, conditions: quinolinone compounds (Table 2)

| pIC50 | Compound |
| --- | --- |
| < 4.00 | COc1ccc2c(-c3ccc(F)cc3Cl)cc(=O)[nH]c2c1 [Example Q1, 4-(2-chloro-4-fluorophenyl)-7-methoxyquinolin-2(1H)-one] |
| < 4.00 | O=c1cc(-c2ccc(F)cc2Cl)c2ccc(O)cc2[nH]1 [Example Q2, 4-(2-chloro-4-fluorophenyl)-7-hydroxyquinolin-2(1H)-one] |
| 5.40 | Cc1cc(F)ccc1-c1cc(=O)[nH]c2cc(OC(C)C)ccc12 [Example Q3, 4-(4-fluoro-2-methylphenyl)-7-isopropoxy-1H-quinolin-2-one] |
| 4.64 | CC(C)Oc1ccc2c(-c3ccc(F)cc3Cl)cc(=O)[nH]c2c1 [Example Q4, 4-(2-chloro-4-fluorophenyl)-7-isopropoxyquinolin-2(1H)-one] |
| 5.30 | C[C@@H](Oc1ccc2c(-c3ccc(F)cc3Cl)cc(=O)[nH]c2c1)C(=O)N1CCCCC1 [Example Q5, (R)-4-(2-chloro-4-fluorophenyl)-7-((1-oxo-1-(piperidin-1-yl)propan-2-yl)oxy)quinolin-2(1H)-one] |
| 4.74 | C[C@@H](Oc1ccc2c(-c3ccc(F)cc3Cl)cc(=O)[nH]c2c1)C(=O)N(C)C [Example Q6, (R)-2-((4-(2-chloro-4-fluorophenyl)-2-oxo-1,2-dihydroquinolin-7-yl)oxy)-N,N-dimethylpropanamide] |
| < 4.00 | COc1ccc2c(-c3ccccc3)cc(=O)[nH]c2c1 [Example Q9, 7-methoxy-4-phenylquinolin-2(1H)-one] |
| 5.70 | Cc1ccccc1-c1cc(=O)[nH]c2cc(OC(C)C)ccc12 [Example Q10, 7-isopropoxy-4-(o-tolyl)quinolin-2(1H)-one] |
| 5.52 | Cc1ccccc1-c1cc(=O)[nH]c2cc(O[C@H](C)C(=O)O)ccc12 [Example Q13, (R)-2-((2-oxo-4-(o-tolyl)-1,2-dihydroquinolin-7-yl)oxy)propanoic acid] |
| 5.15 | Cc1ccccc1-c1cc(=O)[nH]c2cc(O[C@H](C)C(=O)N3CCC(C(=O)O)CC3)ccc12 [Example Q14, (R)-1-(2-((2-oxo-4-(o-tolyl)-1,2-dihydroquinolin-7-yl)oxy)propanoyl)piperidine-4-carboxylic acid] |
| 5.15 | Cc1ccccc1-c1cc(=O)[nH]c2cc(O[C@H](C)C(=O)N3CCC[C@H](C(=O)O)C3)ccc12 [Example Q15, (S)-1-((R)-2-((2-oxo-4-(o-tolyl)-1,2-dihydroquinolin-7-yl)oxy)propanoyl)piperidine-3-carboxylic acid] |

| Compound | pIC50 |
| --- | --- |
| CCC(C)Oc1ccc2c(-c3ccccc3C)cc(=O)[nH]c2c1 (stereo not shown) [Example Q11, 7-(sec-butoxy)-4-(o-tolyl)quinolin-2(1H)-one] | 5.52 |
| Cc1ccccc1-c1cc(=O)[nH]c2cc(OCC(C)C)ccc12 [Example Q12, 7-isobutoxy-4-(o-tolyl)quinolin-2(1H)-one] | 4.74 |
